Data reported in ChEMBL document CHEMBL3045911, “Control of Contarinia nasturtii Keiffer (Diptera: Cecidomyiidea) by foliar sprays of acetamiprid on cauliflower transplants” (2007).
The source made the active and inactive calls. No cut-off for these calls is given here.

Key:
[1] = tested on: Contarinia nasturtii; assay: Pesticidal activity against Contarinia nasturtii grown on […] applied as foliar spray immediately post-ovipositioning relative to control; type: functional
[2] = tested on: Contarinia nasturtii; assay: Pesticidal activity against Contarinia nasturtii grown on three-leafstage cauliflower seedling assessed as insect egg hatching at 34 g a.i./ha applied as foliar spray prior to oviposition measured after 7 days (reference value: 100%); type: functional
[3] = tested on: Contarinia nasturtii; assay: Pesticidal activity against Contarinia nasturtii grown on three-leaf stage cauliflower seedling at 34 g a.i./ha applied as foliar spray 8 days post-ovipositioning measured after 10 days; type: functional
[4] = tested on: Contarinia nasturtii; assay: Pesticidal activity against Contarinia nasturtii grown on three-leaf stage cauliflower seedling at 34 g a.i./ha applied as foliar spray immediately post-ovipositioning measured after 7 days; type: functional
[5] = tested on: Contarinia nasturtii; assay: Pesticidal activity against Contarinia nasturtii grown on three-leaf stage cauliflower seedling assessed as decrease in damage to seedling tips at 34 g a.i./ha applied as foliar spray 8 days post-ovipositioning measured after 10 days; type: functional, organism-based
[6] = tested on: Contarinia nasturtii; assay: Pesticidal activity against Contarinia nasturtii grown on three-leaf stage cauliflower seedling assessed as decrease in insect eggs laid per plant at 34 g a.i./ha applied as foliar spray 4 days post-ovipositioning measured after 7 days relative to control; type: functional, organism-based
[7] = tested on: Contarinia nasturtii; assay: Pesticidal activity against Contarinia nasturtii grown on three-leaf stage cauliflower seedling assessed as insect egg hatching at 34 g a.i./ha applied as foliar spray 4 days post-ovipositioning measured after 7 days (reference value: 99.73 +/- 0.27%); type: functional
[8] = tested on: Contarinia nasturtii; assay: Pesticidal activity against Contarinia nasturtii grown on three-leaf stage cauliflower seedling assessed as insect egg hatching at 34 g a.i./ha applied as foliar spray immediately post-ovipositioning measured after 7 days (reference value: 100%); type: functional
[9] = tested on: Contarinia nasturtii; assay: Pesticidal activity against Contarinia nasturtii grown on three-leaf stage cauliflower seedling assessed as insect egg hatching at 34 g a.i./ha applied as foliar spray 8 days post-ovipositioning measured after 10 days (reference value: 100%); type: functional
[10] = tested on: Contarinia nasturtii; assay: Pesticidal activity against Contarinia nasturtii grown on three-leaf stage cauliflower seedling assessed as decrease in mean number of larvae at 34 g a.i./ha applied as foliar spray 8 days post-ovipositioning measured on the above ground part of seedling after 10 days; type: functional, organism-based
[11] = tested on: Contarinia nasturtii; assay: Pesticidal activity against Contarinia nasturtii grown on three-leaf stage cauliflower seedling assessed as mortality of insect adult at 34 g a.i./ha applied as foliar spray prior to oviposition measured after 24 hr relative to control; type: functional
[12] = tested on: Contarinia nasturtii; assay: Pesticidal activity against Contarinia nasturtii grown on three-leaf stage cauliflower seedling at 34 g a.i./ha applied as foliar spray 4 days post-ovipositioning measured after 7 days; type: functional
[13] = tested on: Contarinia nasturtii; assay: Pesticidal activity against Contarinia nasturtii grown on three-leaf stage cauliflower seedling assessed as decrease in larval feeding time at 34 g a.i./ha applied as foliar spray 8 days post-ovipositioning measured as emergence of adult insect in the soil 7 days after cutting of seedling; type: functional, organism-based
[14] = tested on: Contarinia nasturtii; assay: Pesticidal activity against Contarinia nasturtii grown on three-leaf stage cauliflower seedling assessed as decrease in insect eggs laid per plant at 34 g a.i./ha applied as foliar spray immediately post-ovipositioning measured after 7 days relative to control; type: functional, organism-based
[15] = tested on: Contarinia nasturtii; assay: Pesticidal activity against Contarinia nasturtii grown on three-leaf stage cauliflower seedling assessed as decrease in insect eggs laid per plant at 34 g a.i./ha applied as foliar spray prior to oviposition measured after 7 days relative to control; type: functional, organism-based
[16] = tested on: Contarinia nasturtii; assay: Pesticidal activity against Contarinia nasturtii grown on three-leaf stage cauliflower seedling assessed as insect egg death at 34 g a.i./ha applied as foliar spray prior to oviposition measured after 7 days; type: functional, organism-based
[17] = tested on: Contarinia nasturtii; assay: Pesticidal activity against Contarinia nasturtii grown on […] assessed as larval pupation applied as foliar spray 8 days post-ovipositioning relative to control; type: functional
[18] = tested on: Contarinia nasturtii; assay: Pesticidal activity against Contarinia nasturtii grown on […] assessed as larvae survival applied as foliar spray 8 days post-ovipositioning relative to control; type: functional
[19] = tested on: Contarinia nasturtii; assay: Pesticidal activity against Contarinia nasturtii grown on three-leaf stage cauliflower seedling assessed as insect egg death at 34 g a.i./ha applied as foliar spray immediately post-ovipositioning measured after 7 days relative to control; type: functional
[20] = tested on: Contarinia nasturtii; assay: Pesticidal activity against Contarinia nasturtii grown on three-leaf stage cauliflower seedling at 34 g a.i./ha applied as foliar spray prior to oviposition measured after 7 days; type: functional
[21] = tested on: Contarinia nasturtii; assay: Pesticidal activity against Contarinia nasturtii grown on three-leaf stage cauliflower seedling assessed as mortality of insect adult at 34 g a.i./ha applied as foliar spray prior to oviposition measured after 48 hr relative to control; type: functional

C/C(=N\C#N)N(C)Cc1ccc(Cl)nc1 [ACETAMIPRID]
Activity [1]: 99.9%
Activity [2]: 0.48%
Activity [3]: 69.89%
Activity [4]: 100%
Activity [5]: inactive
Activity [6]: inactive
Activity [7]: 100%
Activity [8]: 0%
Activity [9]: 100%
Activity [10]: Active
mortality at 34 g/ha [11]: 84.4%
Activity [12]: 99.83%
Activity [13]: Active
Activity [14]: inactive
Activity [15]: Active
Activity [16]: Active
Activity [17]: 20%
Activity [18]: 30%
Activity [19]: 100%
Activity [20]: 99.52%
mortality at 34 g/ha [21]: 100%
